These results are taken from ChEMBL document CHEMBL1155430, “Discovery of novel and potent benzhydryl-tropane trypanocides highly selective for Trypanosoma cruzi” (Bioorg Med Chem Lett, 2010).

Bounds are passed on as bounds.

One test relates to Trypanosoma cruzi. Put plainly: Antiparasitic activity against Trypanosoma cruzi Tulahuen C2C4 amastigotes. The test is classed as functional, organism-based.
Another test relates to L6. Put plainly: Cytotoxicity against rat L6 cells. Type of test: cell-based.
Test [1] can be described thus: Selectivity index, ratio of EC50 for Trypanosoma cruzi Tulahuen C2C4 amastigotes to the EC50 for rat L6 cells.
The next test has as its system Plasmodium falciparum. Put plainly: Antiparasitic activity against Plasmodium falciparum 3D7 at erythrocytic stage. Type of test: functional, organism-based.
For another test, the system named is Leishmania donovani. Put plainly: Antiparasitic activity against Leishmania donovani MHOM/ET/67/L82 amastigotes. Type of test: functional, organism-based.
In test [2] the test system is Trypanosoma brucei rhodesiense. The test is described as follows: Antiparasitic activity against Trypanosoma brucei rhodesiense STIB900 bloodstream form. The test is classed as functional, organism-based.
A further test has as its target Trypanothione reductase (Trypanosoma cruzi, UniProt P28593). The test is described as follows: Inhibition of Trypanosoma cruzi X10/1 recombinant trypanothione reductase assessed as increase in absorbance at 410 nm due to the formation of TNB.

Chain of Trypanothione reductase (P28593 whole entry): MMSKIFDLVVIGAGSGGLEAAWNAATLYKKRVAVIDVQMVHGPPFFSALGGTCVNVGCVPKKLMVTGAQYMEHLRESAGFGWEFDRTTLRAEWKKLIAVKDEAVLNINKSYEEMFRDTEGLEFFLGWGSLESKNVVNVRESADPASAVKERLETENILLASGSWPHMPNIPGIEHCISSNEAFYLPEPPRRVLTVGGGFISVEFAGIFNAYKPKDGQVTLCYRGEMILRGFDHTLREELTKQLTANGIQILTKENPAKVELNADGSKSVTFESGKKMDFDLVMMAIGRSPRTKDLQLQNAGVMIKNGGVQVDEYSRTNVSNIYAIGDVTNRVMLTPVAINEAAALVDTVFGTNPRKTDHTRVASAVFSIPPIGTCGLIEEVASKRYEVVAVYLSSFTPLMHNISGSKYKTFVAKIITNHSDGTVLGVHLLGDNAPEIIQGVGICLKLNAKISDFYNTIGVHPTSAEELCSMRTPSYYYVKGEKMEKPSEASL

With `CN1C2CCC1CC(=NOC(c1ccc(Cl)cc1)c1cccnc1)C2` (stereo not drawn), the results for the EC50 with Trypanosoma cruzi and in the test on L6 were 0.5 µM and above 100 µM, respectively.

Take `Clc1ccc(C(ON=C2CC3CCC(C2)N3)c2ccccc2)cc1` (stereo not drawn): the EC50 in the test with Trypanosoma cruzi is 2 µM; in the test with L6, 9.8 µM.

Turning to `CN1C2CCC1CC(=NOC(c1ccc(Cl)cc1)c1ccccn1)C2` (stereo not drawn), the EC50 in the test on Trypanosoma cruzi was 2.9 µM; in the test with L6, above 100 µM.

Regarding `CN1C2CCC1CC(=NOC(Cc1ccccc1)c1ccc(Cl)cc1)C2` (stereo not drawn), the EC50 worked out at 2.1 µM in the test on Trypanosoma cruzi and 40 µM in the test with L6.

Regarding `CN1C2CCC1CC(=NOC(c1ccccc1)c1ccc(C(F)(F)F)cc1)C2` (stereo not drawn), the EC50 in the test on Trypanosoma cruzi was 0.03 µM; with L6, 35 µM. In test [1], the “Ratio EC50” value was above 1000.

Take `COc1cccc(C(ON=C2CC3CCC(C2)N3C)c2ccccc2)c1` (stereo not drawn): the results for the EC50 in the test with Trypanosoma cruzi and in the test with L6 were 2 µM and 48 µM, respectively.

Turning to `O=C(Cn1ccnc1[N+](=O)[O-])NCc1ccccc1` [BENZNIDAZOLE], a half-maximal effect with Trypanosoma cruzi (EC50) was put at 1.8 µM.

For the molecule `CN1C2CCC1CC(=NOC(c1ccccc1)c1ccc(F)cc1)C2` (stereo not drawn), the EC50 in the test on Trypanosoma cruzi was determined as 0.8 µM; in the test on L6, 50 µM.

For `Clc1ccc(C(ON=C2CCCCC2)c2ccccc2)cc1` (stereo not drawn), the figures for the EC50 in the test with Trypanosoma cruzi and with L6 were above 10 µM and above 100 µM, respectively.

On to `CN1C2CCC1CC(=NOC(c1ccccc1)c1ccccc1)C2`, for which the figures for the EC50 in the test on Trypanosoma cruzi and in the test with L6 were 1.3 µM and above 100 µM, respectively.

Regarding `CN1C2CCC1CC(=NOC(Cc1ccc(Cl)cc1)c1ccccc1)C2` (stereo not drawn), the EC50 in the test on Trypanosoma cruzi came out at 1.9 µM; in the test on L6, 49 µM.

For `CN(C)CCN1C2CCC1CC(=NOC(c1ccccc1)c1ccc(Cl)cc1)C2` (stereo not drawn), the EC50 is 6.9 µM with Trypanosoma cruzi and 15 µM in the test with L6.

Regarding `CN1C2CCC1CC(=NOCc1ccccc1)C2`, the EC50 is above 10 µM in the test with Trypanosoma cruzi and above 100 µM in the test on L6.

In the case of `COc1ccc(C(ON=C2CC3CCC(C2)N3C)c2ccccc2)cc1` (stereo not drawn), the EC50 was 0.3 µM in the test on Trypanosoma cruzi and above 100 µM with L6.

With `CN1C2CCC1CC(=NOC(c1ccncc1)c1ccc(Cl)cc1)C2` (stereo not drawn), the EC50 in the test on Trypanosoma cruzi is 6.2 µM; in the test on L6, above 100 µM.

Molecule `COc1cc([C@@H]2c3cc4c(cc3[C@H](O)[C@H]3COC(=O)[C@H]23)OCO4)cc(OC)c1OC` [PODOFILOX] displayed a 50% effective concentration (EC50) with L6 of 0.014 µM.

As to `CN1C2CCC1CC(=NOC1c3ccccc3-c3ccccc31)C2`, the half-maximal effective concentration (EC50) with Trypanosoma cruzi is above 10 µM; in the test on L6, 68 µM.

For `CCN(CC)CCCC(C)Nc1ccnc2cc(Cl)ccc12` (stereo not drawn) [CHLOROQUINE], the EC50 in the test on Plasmodium falciparum is 0.0094 µM.

Consider `CN1CCC(=NOC(c2ccccc2)c2ccc(Cl)cc2)CC1` (stereo not drawn), for which the EC50 worked out at 3.7 µM in the test on Trypanosoma cruzi and 50 µM in the test with L6.

With `CN1C2CCC1CC(=NOC(CCc1ccc(Cl)cc1)c1ccccc1)C2` (stereo not drawn), the results for the 50% effective concentration (EC50) with Trypanosoma cruzi and in the test on L6 were 0.8 µM and 16 µM, respectively.

For the molecule `CN1C2CCC1CC(=NOC(c1ccc(Cl)cc1)c1cncs1)C2` (stereo not drawn), the values for the EC50 with Trypanosoma cruzi and in the test on L6 were 6 µM and above 100 µM, respectively.

Regarding `CN1C2CCC1CC(=NOC(c1ccccc1)c1ccc(I)cc1)C2` (stereo not drawn), the values for the EC50 in the test with Trypanosoma cruzi and with L6 were 0.04 µM and 39 µM, respectively.

With `CN1C2CCC1CC(=NOC(CCc1ccccc1)c1ccc(Cl)cc1)C2` (stereo not drawn), the half-maximal effective concentration (EC50) turned out to be 6.5 µM in the test with Trypanosoma cruzi and 20 µM in the test on L6.

As for `CN1C2CCC1CC(=NOC(c1ccc(Cl)cc1)c1nccs1)C2` (stereo not drawn), the values for the EC50 in the test with Trypanosoma cruzi and in the test on L6 were 2.3 µM and above 100 µM, respectively.

In the case of `CN1C2CCC1CC(=NOC(c1ccccc1)c1cccc(Cl)c1)C2` (stereo not drawn), the concentration for a half-maximal effect (EC50) in the test with Trypanosoma cruzi is 2.1 µM; in the test on L6, 19 µM.

Molecule `CCCCCCCCCCCCCCCCOP(=O)([O-])OCC[N+](C)(C)C` [MILTEFOSINE] came in with a concentration giving a half-maximal response (EC50) with Leishmania donovani of 0.27 µM.

For `CN1C2CCC1CC(=NOC(c1ccccc1)c1ccc(C#N)cc1)C2` (stereo not drawn), the EC50 with Trypanosoma cruzi stood at 0.4 µM; in the test with L6 it was 53 µM.

Take `OCCN1C2CCC1CC(=NOC(c1ccccc1)c1ccc(Cl)cc1)C2` (stereo not drawn): the EC50 turned out to be 7.8 µM in the test with Trypanosoma cruzi and 47 µM with L6.

Take `CN1C2CCC1CC(=NOCc1ccc(Cl)cc1)C2`: the concentration giving a half-maximal response (EC50) in the test with Trypanosoma cruzi is above 10 µM; with L6, above 100 µM.

Regarding `CN1C2CCC1CC(=NOC(CCCc1ccccc1)c1ccc(Cl)cc1)C2` (stereo not drawn), the EC50 was found to be 4.3 µM with Trypanosoma cruzi and 17 µM with L6.

Take `COc1ccccc1C(ON=C1CC2CCC(C1)N2C)c1ccccc1` (stereo not drawn): the results for the EC50 in the test on Trypanosoma cruzi and with L6 were above 10 µM and above 100 µM, respectively.

As to `CN1C2CCC1CC(=NOC(c1ccccc1)c1ccc(Cl)cc1)C2` (stereo not drawn), the EC50 was 7.5 µM in the test with Plasmodium falciparum; above 30 µM in the test with Leishmania donovani; 0.11 µM in the test on Trypanosoma cruzi; 3 µM in test [2]; 36 µM with L6; 35 µM on Trypanothione reductase.

Regarding `CC(C)=NOC(c1ccccc1)c1ccc(Cl)cc1` (stereo not drawn), the EC50 in the test with Trypanosoma cruzi is above 10 µM; with L6, above 100 µM.

For the molecule `CN1C2CCC1CC(=NOC(c1ccc(Cl)cc1)c1ccc(Cl)cc1)C2`, the 50% effective concentration (EC50) in the test with Trypanosoma cruzi worked out at 6 µM; in the test with L6 it was 16 µM.

For `CN1C2CCC1CC(=NOC(c1ccccc1)c1ccccc1Cl)C2` (stereo not drawn), the EC50 was 6.8 µM in the test on Trypanosoma cruzi and 15 µM in the test with L6.

Turning to `Nc1nc(N)nc(Nc2ccc([As]3SCC(CO)S3)cc2)n1` (stereo not drawn) [MELARSOPROL], the EC50 in test [2] is 0.017 µM.

As for `CN1C2CCC1CC(=NOC(c1ccc(Cl)cc1)c1cscn1)C2` (stereo not drawn), the values for the half-maximal effective concentration (EC50) with Trypanosoma cruzi and with L6 were 0.8 µM and 71 µM, respectively.

Turning to `Cc1ccc(C(ON=C2CC3CCC(C2)N3C)c2ccccc2)cc1` (stereo not drawn), the results for the EC50 in the test on Trypanosoma cruzi and in the test with L6 were 0.3 µM and 51 µM, respectively.

`CN1C2CCC1CC(=NOC(c1ccccc1)c1ccc(Br)cc1)C2` (stereo not drawn): the EC50 in the test on Trypanosoma cruzi came to 0.04 µM; with L6 it was 40 µM.

The term EC50 denotes the concentration needed to bring the measured effect to its halfway point.
